The term inhibition denotes how much of the control response was suppressed.

The text below walks through data of patent EP1200395B1, “UREA DERIVATIVES AS INHIBITORS OF CCR-3 RECEPTOR” (KIRIN BEER KABUSHIKI KAISHA, priority 1999, dated 2001).

In the assay the target is T1, CCR-3 (Homo sapiens, UniProt P51677).
T1 sequence (P51677 1-355): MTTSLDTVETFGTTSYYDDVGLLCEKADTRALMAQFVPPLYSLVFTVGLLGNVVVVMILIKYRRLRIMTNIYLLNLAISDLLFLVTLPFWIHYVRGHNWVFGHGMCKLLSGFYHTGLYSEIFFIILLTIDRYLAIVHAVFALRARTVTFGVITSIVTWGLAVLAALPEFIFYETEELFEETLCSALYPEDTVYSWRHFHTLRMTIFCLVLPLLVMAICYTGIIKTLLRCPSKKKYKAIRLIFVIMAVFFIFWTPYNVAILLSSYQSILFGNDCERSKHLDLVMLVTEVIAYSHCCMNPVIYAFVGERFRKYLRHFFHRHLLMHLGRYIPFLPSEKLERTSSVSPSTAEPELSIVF
Description: Eotaxin-induced chemotaxis of CCR-3 transfectant cells (CCR3/U937). It counts as cell-based. To be noted: eotaxin 1 x 10^-9 M; for Chemotaxis Assay 10 µM (inhibition %) / inhibition at 10 µM: 10 µM test compound; for Chemotaxis Assay 0.1 µg/ml (inhibition %): test compound 0.1 µg/ml, CCR3/U937 transfectants, 37 °C, 1 hour; for inhibition at 10 µM: U-937. More on the design: expressed in transfected cells; host or cells: U937. The procedure: The inhibitory activity of the compounds against eotaxin-induced chemotaxis was determined by measuring the inhibition of migration of CCR-3 transfectant cells (CCR3/U937), using a minor modification of the method described by Ohashi, H. et al., Int Arch Allergy Immunol. […] The chemotaxis assay was performed in a 24-well culture plate. Human eotaxin suspended in assay medium was added to the wells at 1 x 10^-9 M along with test compounds at various concentrations. For a positive control, eotaxin was added to the wells without a test compound, and for a negative control, neither eotaxin nor a test compound was added to the wells. Chemotaxicell (Kurabo Co., Ltd.) having 5 micrometers pore size were inserted into each well and 100 micro liters of CCR-3 transfectant cells suspension were added to the top chamber. The plates were incubated at 37 °C for 1 hour. After incubation, migrated cells in lower wells were diluted and counted by particle size distribution analyzer (CDP-500, Sysmex Co., Ltd.).

In the case of `COC(=O)CCCN(CCCNC(=O)Nc1ccccc1)CCc1ccc(Cl)cc1` [Compound 274], the “Chemotaxis Assay 10 µM (inhibition %)” value (CCR3/U937 cells (Table 3a)) came out at 60%. On the same count and under the same terms, the value for `N#Cc1cccc(NC(=O)NCCCN(CCCC(=O)O)C2CCCc3ccccc32)c1` (centres unmarked) [Compound 260] was 100%. Take `CC[N+](CCCNC(=O)Nc1ccccc1)(CCc1ccc(Cl)cc1)Cc1cccc(Oc2ccccc2F)c1.[I-]` (centres unmarked) [compound 354]: the “Chemotaxis Assay 10 µM (inhibition %)” value (CCR3/U937 cells (Table 3c)) was 100%. In the case of `CCC(CC)C[N+](CC)(CCCNC(=O)Nc1ccccc1)CCc1ccc(Cl)c(Cl)c1.[I-]` (centres unmarked) [compound 430], the “Chemotaxis Assay 0.1 µg/ml (inhibition %)” value was 76%. In the case of `O=C(O)CCCN(CCCNC(=O)Nc1ccc(C(=O)O)cc1)C1CCCc2ccccc21` (centres unmarked) [Compound 235], the “Chemotaxis Assay 10 µM (inhibition %)” value (CCR3/U937 cells (Table 3a)) came to 91%. For `O=C(O)CCCN(CCCCCNC(=O)Nc1ccc(Br)cc1)C1CCCc2ccccc21` (centres unmarked) [Compound 63, 4-[[5-(4-Bromophenylureido)pentyl](1,2,3,4-tetrahydro-1-naphthyl)-amino]butanoic acid], under “CCR3/U937 cells (Table 3a)”, the inhibition at 10 µM amounted to 100%. As to `CC[N+](CC)(CCCNC(=O)Nc1ccccc1)CCc1ccc(C)cc1.[I-]` [Compound 307], the “Chemotaxis Assay 10 µM (inhibition %)” value (CCR3/U937 cells (Table 3c)) is 92%. Consider `CC[N+](CCCNC(=O)Nc1ccccc1)(CCc1ccc(Cl)cc1)Cc1ccc(C)c(C)c1.[I-]` (centres unmarked) [compound 353], for which the “Chemotaxis Assay 10 µM (inhibition %)” value (CCR3/U937 cells (Table 3c)) is given as 100%.

`O=C(O)CCCN(CCCNC(=O)Nc1ccc(Br)cc1)C(Cc1ccccc1)c1ccccc1` (centres unmarked) [Compound 75]: where the note is “CCR3/U937 cells (Table 3a)”, the “Chemotaxis Assay 10 µM (inhibition %)” value stood at 68%. Turning to `CC[N+](CCF)(CCCNC(=O)Nc1ccc(OC)cc1)CCc1ccc(Cl)c(Cl)c1.[I-]` (centres unmarked) [compound 453], the “Chemotaxis Assay 0.1 µg/ml (inhibition %)” value is recorded as 87%. Still for that read-out and setting: the value for `CC[N+](CCF)(CCCNC(=O)Nc1ccc(OC)cc1)CCc1cccc(Cl)c1.[I-]` (centres unmarked) [compound 451] was 92%.

On to `C=C(C)C[N+](CC)(CCCNC(=O)Nc1ccc(C(F)(F)F)cc1)CCc1cccc(Cl)c1.[I-]` (centres unmarked) [compound 390], for which the “Chemotaxis Assay 0.1 µg/ml (inhibition %)” value is reported as 51%. For the setting “CCR3/U937 cells (Table 3a)”, `O=C(O)CCCN(CCCNC(=O)Nc1ccc(Br)cc1)[C@@H]1CCc2ccccc21` [Compound 179, 4-[[3-(4-Bromophenylureido)propyl][(1R)-1-indanyl]amino]butanoic acid] came in with an inhibition at 10 µM of 100%. Regarding `CC[N+](CCCNC(=O)Nc1ccccc1)(CCc1cccc(F)c1)CC1CCC1.[I-]` (centres unmarked) [compound 421], the “Chemotaxis Assay 0.1 µg/ml (inhibition %)” value was determined as 66%.

On to `COC(=O)CN(CCCNC(=O)Nc1ccccc1)CCc1ccc(Cl)cc1` [Compound 245], for which the “Chemotaxis Assay 10 µM (inhibition %)” value (CCR3/U937 cells (Table 3a)) was found to be 100%.

Regarding `C[C@H](c1ccc(Br)cc1)N(CCCNC(=O)Nc1ccc(Br)cc1)CCCC(=O)O` [Compound 258, 4-[[3-(4-Bromophenylureido)propyl] [(1R)-1-(4-bromophenyl)ethyl]amino]butanoic acid], the inhibition at 10 µM (CCR3/U937 cells (Table 3a)) turned out to be 100%.

Consider `CCC(CC)C[N+](CC)(CCCNC(=O)Nc1ccccc1)CCc1ccc(Cl)cc1.[I-]` (centres unmarked) [compound 427], for which the “Chemotaxis Assay 0.1 µg/ml (inhibition %)” value came to 67%.

Regarding `O=C(O)CCCN(CCCNC(=O)Nc1ccc(Br)cc1)C1CCc2ccccc21` (centres unmarked) [Compound 173, 4-[[3-(4-Bromopbenylureido)propyl](1-indanyl)amino]butanoic acid], where the note is “CCR3/U937 cells (Table 3a)”, the “Chemotaxis Assay 10 µM (inhibition %)” value came out at 100%. Regarding `CC[N+](CCCNC(=O)Nc1ccccc1)(CCc1ccc(Cl)cc1)Cc1ccc(Br)cc1.[I-]` (centres unmarked) [compound 340], where the note is “CCR3/U937 cells (Table 3c)”, the “Chemotaxis Assay 10 µM (inhibition %)” value is 100%. For `O=C(NCCCN(CCc1ccccc1)CCc1ccc(Cl)cc1)Nc1ccccc1` [Compound 25], the inhibition at 10 µM (CCR3/U937 cells (Table 3a)) worked out at 88%. Regarding `C=C(C)C[N+](CC)(CCCNC(=O)Nc1ccccc1)CCc1ccc(Cl)cc1Cl.[I-]` (centres unmarked) [compound 424], the “Chemotaxis Assay 0.1 µg/ml (inhibition %)” value stood at 95%. With `COC(=O)CCCN(CCCNC(=O)Nc1ccc(F)cc1)C1CCCc2ccccc21` (centres unmarked) [Compound 187], where the note is “CCR3/U937 cells (Table 3a)”, the “Chemotaxis Assay 10 µM (inhibition %)” value came to 100%. Still for that read-out and setting: the value for `CCN(CCCNC(=O)Nc1ccccc1)CCc1ccccc1Cl` [Compound 232] was 100%. Same read-out and setting: the value for `COC(=O)CCCN(CCCCCNC(=O)Nc1ccc(Br)cc1)C1CCCc2ccccc21` (centres unmarked) [Compound 33, Methyl 4-[[5-(4-bromophenylureido)penryl](1,2.3,4-tetrahvdro-1-naphthyl)amino]burylate] was 95%; that for `O=C(O)CCCN(CCCNC(=O)Nc1ccccc1Br)C1CCCc2ccccc21` (centres unmarked) [Compound 190] was 90%.

Compound `CN(CCCNC(=O)Nc1ccccc1)CCc1ccc(Cl)cc1` [Compound 27] returned an inhibition at 10 µM (CCR3/U937 cells (Table 3a)) of 97%. Take `CCC(CC)C[N+](CC)(CCCNC(=O)Nc1ccc(OC)cc1)CCc1cccc(Cl)c1.[I-]` (centres unmarked) [compound 448]: the “Chemotaxis Assay 0.1 µg/ml (inhibition %)” value is 82%. On to `CSc1ccc(NC(=O)NCCCN(CCCC(=O)O)C2CCCc3ccccc32)cc1` (centres unmarked) [Compound 264], for which the “Chemotaxis Assay 10 µM (inhibition %)” value (CCR3/U937 cells (Table 3a)) amounted to 100%. For the compound `CCCCN(CCCNC(=O)Nc1ccccc1)CCc1ccc(Cl)cc1` [Compound 14], under “CCR3/U937 cells (Table 3a)”, the “Chemotaxis Assay 10 µM (inhibition %)” value turned out to be 97%. Regarding `C=CC[N+](CC)(CCCNC(=O)Nc1ccccc1)CCc1ccc(Cl)cc1.[I-]` (centres unmarked) [Compound 301], the “Chemotaxis Assay 10 µM (inhibition %)” value (CCR3/U937 cells (Table 3c)) amounted to 100%. On to `O=C(CCCN(CCCNC(=O)Nc1ccc(Br)cc1)C1CCCc2ccccc21)NS(=O)(=O)c1ccccc1` (centres unmarked) [Compound 196, 3-[[3-(4-Bromophenylureido)propyl](1,2,3,4-tetrahydro-1-naphthyl)amino]-1-[(phenylsulfonyl)carbamoyl]propane], for which, under “CCR3/U937 cells (Table 3a)”, the inhibition at 10 µM worked out at 100%.

For `CCC(CC)C[N+](CC)(CCCNC(=O)Nc1ccc(Br)cc1)CCc1cccc(Cl)c1.[I-]` (centres unmarked) [compound 379], the “Chemotaxis Assay 0.1 µg/ml (inhibition %)” value worked out at 80%. The same measure, in the same setting: the value for `CC[N+](CCF)(CCCNC(=O)Nc1ccccc1)CCc1cccc(Cl)c1.[I-]` (centres unmarked) [compound 432] was 96%.

As for `CC[N+](CCCNC(=O)Nc1ccc(Br)cc1)(CCCC(=O)OC)C(C)c1ccccc1.[I-]` (centres unmarked) [compound 312], under “CCR3/U937 cells (Table 3c)”, the “Chemotaxis Assay 10 µM (inhibition %)” value is reported as 97%.

As for `CCC(CC)C[N+](CC)(CCCNC(=O)Nc1ccc(Br)cc1)CCc1ccc(Cl)c(Cl)c1.[I-]` (centres unmarked) [compound 380], the “Chemotaxis Assay 0.1 µg/ml (inhibition %)” value was 46%. Still for that read-out and setting: under `CC[N+](CCF)(CCCNC(=O)Nc1ccc(Cl)c(Cl)c1)CCc1cccc(F)c1.[I-]` (centres unmarked) [compound 371] stands 86%. For `O=C(O)CCCN(CCCNC(=O)Nc1ccc(Br)cc1)C1c2ccccc2CC1O` (centres unmarked) [Compound 273], for the setting “CCR3/U937 cells (Table 3a)”, the “Chemotaxis Assay 10 µM (inhibition %)” value turned out to be 88%. For the compound `COc1cccc(NC(=O)NCCCN(CCCC(=O)O)C2CCCc3ccccc32)c1` (centres unmarked) [Compound 261], for the setting “CCR3/U937 cells (Table 3a)”, the “Chemotaxis Assay 10 µM (inhibition %)” value is 100%.

`O=C(O)CCCN(CCCNC(=O)Nc1ccc(I)cc1)C1CCCc2ccccc21` (centres unmarked) [Compound 229, 4-[[3-(4-Iodophenylureido)propyl](1,2,3,4-tetrahydro-1-naphthyl)amino]butanoic acid] came in with an inhibition at 10 µM (CCR3/U937 cells (Table 3a)) of 100%.

For the compound `CC[N+](CCCNC(=O)Nc1ccc(C#N)cc1)(CCc1ccc(Cl)cc1)Cc1ccccc1.[I-]` (centres unmarked) [compound 326], the “Chemotaxis Assay 10 µM (inhibition %)” value (CCR3/U937 cells (Table 3c)) came to 100%.

Take `COC(=O)CCCN(CCCNC(=O)Nc1ccc(Cl)c(Cl)c1)C1CCCc2ccccc21` (centres unmarked) [Compound 35, Methyl 4-[[3-(3,4-dichlorophenylureido)propyl](1,2,3,4-tetrahydro-1-naphthyl)amino]burylate]: the “Chemotaxis Assay 10 µM (inhibition %)” value (CCR3/U937 cells (Table 3a)) is reported as 100%.
